Reference: PMC5430831 (Acta Pharmaceutica Sinica. B, 2017)
Like-named read-outs stand apart in the source and are kept apart here.

Columns and labels:
VEGFR1 = VEGFR1 (Homo sapiens, UniProt P17948); assay: Radioactive filter binding kinase assay, VEGFR1; format: biochemical
CHK2 = CHK2 (Homo sapiens, UniProt O96017); assay: Radioactive filter binding kinase assay, CHK2; format: biochemical
HL-60 cells [1] = assay: LDH release assay; format: cell-based, Human
HL-60 cells [2] = assay: Cell cycle analysis by flow cytometry; format: cell-based, Human
HL-60 cells [3] = assay: Annexin V-FITC/propidium iodide labeling, confocal imaging; format: cell-based, Human; conditions: HL-60, 5 and 10 μmol/L, 48 h
HL-60 cells [4] = assay: Mitochondrial membrane potential measurement; format: cell-based, Human; conditions: HL-60, 10 μmol/L, JC-1, from 6 h
caspase-3 = assay: Caspase-3 colorimetric activity assay; format: cell-based, Human; conditions: HL-60, 10 μmol/L, 48 h
HL-60 cells [5] = assay: Drug accumulation assay; format: cell-based, Human; conditions: HL-60, 2 h incubation, emission 446 nm
MOLT-4 cells = MOLT-4 cells ref 16; cited from earlier work
MNK2 = MNK2 (Homo sapiens, UniProt Q9HBH9); assay: Radioactive filter binding kinase assay, MNK2; conditions: read-out: percent inhibition MNK2
Aurora B = Aurora B (Homo sapiens, UniProt Q96GD4); assay: Radioactive filter binding kinase assay, Aurora B; conditions: read-out: percent inhibition Aurora B
[6] = read-out: IC50 VEGFR1, mean±SD (n=3)
[7] = read-out: IC50 CHK2, mean±SD (n=3)

VEGFR1, sequence (P17948 27-1338, species assumed): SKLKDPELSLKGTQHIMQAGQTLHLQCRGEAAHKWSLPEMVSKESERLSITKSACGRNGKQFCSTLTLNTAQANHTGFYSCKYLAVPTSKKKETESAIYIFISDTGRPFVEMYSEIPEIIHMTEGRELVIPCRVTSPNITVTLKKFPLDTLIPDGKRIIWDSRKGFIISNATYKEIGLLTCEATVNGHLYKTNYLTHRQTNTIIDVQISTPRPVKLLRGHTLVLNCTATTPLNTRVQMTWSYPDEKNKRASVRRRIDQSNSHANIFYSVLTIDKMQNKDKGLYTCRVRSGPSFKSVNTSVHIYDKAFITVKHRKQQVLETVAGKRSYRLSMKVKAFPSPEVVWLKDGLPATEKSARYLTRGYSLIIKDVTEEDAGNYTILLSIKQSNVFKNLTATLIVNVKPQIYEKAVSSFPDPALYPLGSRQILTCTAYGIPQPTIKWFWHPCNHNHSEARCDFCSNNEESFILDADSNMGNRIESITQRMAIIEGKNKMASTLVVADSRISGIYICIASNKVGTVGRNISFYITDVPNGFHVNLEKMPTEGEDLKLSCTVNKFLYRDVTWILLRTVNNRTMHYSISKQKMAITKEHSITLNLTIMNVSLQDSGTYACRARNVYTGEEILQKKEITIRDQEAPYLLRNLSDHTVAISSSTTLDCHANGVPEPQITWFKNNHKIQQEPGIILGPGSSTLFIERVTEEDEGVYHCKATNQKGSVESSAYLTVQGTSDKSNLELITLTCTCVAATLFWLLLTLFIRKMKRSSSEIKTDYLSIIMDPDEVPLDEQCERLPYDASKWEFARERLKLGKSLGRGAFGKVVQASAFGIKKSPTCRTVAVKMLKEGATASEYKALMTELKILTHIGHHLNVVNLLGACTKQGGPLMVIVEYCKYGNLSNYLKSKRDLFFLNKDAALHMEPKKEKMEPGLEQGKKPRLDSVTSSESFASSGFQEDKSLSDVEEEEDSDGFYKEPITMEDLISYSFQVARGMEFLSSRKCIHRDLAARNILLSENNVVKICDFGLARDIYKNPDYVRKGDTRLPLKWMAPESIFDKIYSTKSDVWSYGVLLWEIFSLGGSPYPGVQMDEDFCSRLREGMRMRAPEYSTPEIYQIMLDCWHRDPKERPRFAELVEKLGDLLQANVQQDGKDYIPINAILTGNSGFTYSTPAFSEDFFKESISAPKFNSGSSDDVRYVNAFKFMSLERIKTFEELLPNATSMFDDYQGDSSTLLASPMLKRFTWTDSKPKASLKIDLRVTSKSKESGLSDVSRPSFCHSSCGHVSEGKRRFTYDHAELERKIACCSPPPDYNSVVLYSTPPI
CHK2, sequence (O96017 whole entry, species assumed): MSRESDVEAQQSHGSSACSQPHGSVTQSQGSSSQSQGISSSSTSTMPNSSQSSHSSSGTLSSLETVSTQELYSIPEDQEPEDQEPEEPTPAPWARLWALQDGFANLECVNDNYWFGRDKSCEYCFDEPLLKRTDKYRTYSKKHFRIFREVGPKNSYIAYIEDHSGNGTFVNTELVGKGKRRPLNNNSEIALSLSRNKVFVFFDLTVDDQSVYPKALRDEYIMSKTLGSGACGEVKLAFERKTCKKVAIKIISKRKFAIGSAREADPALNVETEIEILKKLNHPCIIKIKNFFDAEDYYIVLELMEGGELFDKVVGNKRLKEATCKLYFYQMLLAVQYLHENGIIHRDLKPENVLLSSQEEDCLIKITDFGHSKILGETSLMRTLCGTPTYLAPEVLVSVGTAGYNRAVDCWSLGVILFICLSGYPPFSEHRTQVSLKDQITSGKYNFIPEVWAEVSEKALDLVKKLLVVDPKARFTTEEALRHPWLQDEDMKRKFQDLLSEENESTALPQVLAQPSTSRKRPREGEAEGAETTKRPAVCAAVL
MNK2, sequence (Q9HBH9 whole entry, species assumed): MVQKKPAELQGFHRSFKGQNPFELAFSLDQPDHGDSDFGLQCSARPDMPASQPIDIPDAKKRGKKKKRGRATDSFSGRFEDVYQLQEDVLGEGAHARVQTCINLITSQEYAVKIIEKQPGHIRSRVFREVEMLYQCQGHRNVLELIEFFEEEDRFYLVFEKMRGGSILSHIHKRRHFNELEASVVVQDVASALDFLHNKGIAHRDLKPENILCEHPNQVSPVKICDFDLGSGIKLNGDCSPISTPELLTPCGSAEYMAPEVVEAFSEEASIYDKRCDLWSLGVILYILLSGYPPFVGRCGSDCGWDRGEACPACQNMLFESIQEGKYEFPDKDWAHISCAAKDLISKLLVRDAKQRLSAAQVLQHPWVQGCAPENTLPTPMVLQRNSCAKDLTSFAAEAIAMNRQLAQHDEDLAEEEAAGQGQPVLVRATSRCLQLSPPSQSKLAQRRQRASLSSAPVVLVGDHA
Aurora B, sequence (Q96GD4 whole entry): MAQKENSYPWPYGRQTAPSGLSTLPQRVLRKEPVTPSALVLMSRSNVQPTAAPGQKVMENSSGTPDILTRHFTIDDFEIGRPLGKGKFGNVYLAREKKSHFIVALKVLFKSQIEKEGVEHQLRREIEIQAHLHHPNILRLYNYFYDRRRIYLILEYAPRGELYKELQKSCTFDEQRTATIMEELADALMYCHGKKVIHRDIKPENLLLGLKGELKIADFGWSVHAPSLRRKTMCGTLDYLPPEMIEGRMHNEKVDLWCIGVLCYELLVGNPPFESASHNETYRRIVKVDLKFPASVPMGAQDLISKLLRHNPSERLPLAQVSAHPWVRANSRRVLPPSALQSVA

SMILES: CCCCNc1ncnc2c1sc1nc3ccccc3cc12 [BPTQ, 4-butylaminopyrimido[4′,5′:4,5]thieno(2,3-b)quinoline]
- activity at 1 µM (VEGFR1; read-out: percent inhibition VEGFR1): 44%
- activity at 1 µM (CHK2; read-out: percent inhibition CHK2): 40%
- LDH release (HL-60 cells [1]; HL-60, 10 μmol/L): did not induce LDH release
- LDH release (HL-60 cells [1]; HL-60, 50 μmol/L): increased the release of LDH
- LDH release (HL-60 cells [1]; HL-60, 100 μmol/L): increased the release of LDH
- Sub G0/G1 cells (HL-60 cells [2]; HL-60, 10 μmol/L, 48 h): 47%
- Cell cycle arrest (HL-60 cells [2]; HL-60, 48 h): did not induce any cell cycle arrest
- Annexin V-FITC / propidium iodide staining (apoptosis) (HL-60 cells [3]): confirming the induction of apoptosis
- Mitochondrial membrane potential (ΔΨm) (HL-60 cells [4]): striking fall in the membrane potential
- Increase in caspase-3 activity relative to control (caspase-3): about 2 fold
- Intracellular drug uptake (HL-60 cells [5]): dose dependent increase in the intracellular drug uptake
- Cell cycle effect (MOLT-4 cells): cell cycle arrest was observed
- activity at 1 µM (MNK2): 79%
- activity at 1 µM (Aurora B): 74%

SMILES: O=C1Nc2ccccc2/C1=C1/Nc2ccccc2C1=O [Indirubin]
- IC50 (VEGFR1): 42 ± 12 nM
- IC50 (CHK2): 81 ± 19 nM

SMILES: COC(=O)[C@@]1(O)C[C@H]2O[C@]1(C)n1c3ccccc3c3c4c(c5c6ccccc6n2c5c31)C(=O)NC4 [K252a]
- IC50 (VEGFR1; [6]): 13 ± 2 nM
- IC50 (CHK2; [7]): 23 ± 5 nM

SMILES: O=c1c(O)c(-c2cc(O)c(O)c(O)c2)oc2cc(O)cc(O)c12 [Myricetin]
- IC50 (VEGFR1): 779 ± 173 nM

SMILES: Cn1cc(C2=C(c3cn(CCCSC(=N)N)c4ccccc34)C(=O)NC2=O)c2ccccc21 [Ro318220]
- IC50 (VEGFR1; [6]): 120 ± 14 nM
- IC50 (CHK2; [7]): 1070 ± 210 nM

SMILES: Oc1c2ccccc2c2c3c(cccc13)N=N2 [SP600125]
- IC50 (VEGFR1): 335 ± 74 nM
- IC50 (CHK2): 304 ± 94 nM
